The target of the assay is T1, HassOR31/HassORco (Helicoverpa assulta, UniProt A0A7D3UMA0).
T1 construct: with Odorant receptor coreceptor
T1 sequence (A0A7D3UMA0 1-395): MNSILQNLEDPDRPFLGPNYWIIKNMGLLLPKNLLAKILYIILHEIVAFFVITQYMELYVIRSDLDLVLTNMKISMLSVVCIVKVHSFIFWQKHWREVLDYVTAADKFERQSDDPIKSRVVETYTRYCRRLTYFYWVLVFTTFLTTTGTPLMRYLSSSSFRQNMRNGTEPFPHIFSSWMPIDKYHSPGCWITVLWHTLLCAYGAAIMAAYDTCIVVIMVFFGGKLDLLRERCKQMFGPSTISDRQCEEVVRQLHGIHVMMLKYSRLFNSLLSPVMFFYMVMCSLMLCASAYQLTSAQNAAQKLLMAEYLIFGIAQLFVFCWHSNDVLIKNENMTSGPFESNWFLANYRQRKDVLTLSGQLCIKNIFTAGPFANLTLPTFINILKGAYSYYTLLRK
T1 sequence (A7UGE1 1-473 partner): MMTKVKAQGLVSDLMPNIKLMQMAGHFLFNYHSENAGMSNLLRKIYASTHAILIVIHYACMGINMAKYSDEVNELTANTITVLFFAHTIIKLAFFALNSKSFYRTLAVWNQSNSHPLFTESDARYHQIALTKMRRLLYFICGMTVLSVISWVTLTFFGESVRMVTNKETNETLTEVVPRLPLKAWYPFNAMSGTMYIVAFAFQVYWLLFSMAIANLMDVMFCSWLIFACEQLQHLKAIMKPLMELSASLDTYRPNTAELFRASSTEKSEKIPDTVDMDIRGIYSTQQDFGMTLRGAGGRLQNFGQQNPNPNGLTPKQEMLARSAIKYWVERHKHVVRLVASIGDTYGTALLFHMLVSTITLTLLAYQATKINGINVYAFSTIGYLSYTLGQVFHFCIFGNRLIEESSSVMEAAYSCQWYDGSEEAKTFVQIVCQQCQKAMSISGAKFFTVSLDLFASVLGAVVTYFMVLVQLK
Put plainly: two-electrode voltage clamp, Xenopus oocytes, inward current. Format: cell-based. On the technique in general: Two-electrode voltage clamp is typically applied to oocytes expressing channels or transporters.

pEC50: −log10 of the molar value.

The pEC50 is −log10 of the EC50, conventionally taken in molar units. Read a low pEC50 as a high EC50. Turning to `CC/C=C\CCOC(=O)CCC` [Z-3-hexenyl butyrate], the negative-log EC50 (pEC50) was 4.79.

The values above are taken from article PMC7308088, “A moth odorant receptor highly expressed in the ovipositor is involved in detecting host-plant volatiles” (eLife, 2020).
